Results on nine compounds are retold here after patent US6451801B1, “Compounds and methods for treatment of asthma, allergy and inflammatory disorders” (UCB, S.A., priority 1999, dated 2002).

Like-named read-outs stand apart in the source and are kept apart here.

One test has as its target T1, human cloned H1 receptor (Homo sapiens, UniProt P35367).
T1 construct: expressed in transfected cells; host or cells: CHO-K1
As to the kind of experiment: CHO-K1 H1R binding assay. The following applies: 3H-pyrilamine 2 nM, CHO-K1 membranes, 3 hours at 37° C.; read-out: CHOH1 K1.

For test [1], the target named is T2, human 5-lipoxygenase enzyme (Homo sapiens, UniProt P09917).
T2 construct: endogenous in cells; host or cells: human whole blood (leukocytes) stimulated with A23187
T2 sequence (P09917 1-674): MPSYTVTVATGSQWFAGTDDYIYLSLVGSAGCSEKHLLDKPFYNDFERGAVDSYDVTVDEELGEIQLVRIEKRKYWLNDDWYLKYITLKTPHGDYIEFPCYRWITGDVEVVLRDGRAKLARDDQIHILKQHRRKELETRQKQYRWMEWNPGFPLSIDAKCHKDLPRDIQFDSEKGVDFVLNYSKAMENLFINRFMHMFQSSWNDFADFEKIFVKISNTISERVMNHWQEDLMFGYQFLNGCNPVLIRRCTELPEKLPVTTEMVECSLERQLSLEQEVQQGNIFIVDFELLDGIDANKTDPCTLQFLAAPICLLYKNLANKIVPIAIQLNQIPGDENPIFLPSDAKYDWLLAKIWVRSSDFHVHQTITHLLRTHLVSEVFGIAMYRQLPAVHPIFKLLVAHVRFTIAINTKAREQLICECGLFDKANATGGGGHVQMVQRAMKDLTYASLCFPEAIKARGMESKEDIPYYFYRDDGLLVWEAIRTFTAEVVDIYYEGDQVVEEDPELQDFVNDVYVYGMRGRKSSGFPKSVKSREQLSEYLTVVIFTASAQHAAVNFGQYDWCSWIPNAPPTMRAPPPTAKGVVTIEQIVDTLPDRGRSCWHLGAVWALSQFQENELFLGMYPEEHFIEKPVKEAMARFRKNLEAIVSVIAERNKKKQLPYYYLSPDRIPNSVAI
Put plainly: Inhibition of LTB4 production in human whole blood. The class given is cell-based. As to the method:
This assay examines the ability of a compound to inhibit leukotriene B4 production from human blood stimulated with calcium ionophore. As this production of leukotriene B4 is mediated via the activation of the 5-lipoxygenase enzyme, this assay is predictive of a compound's ability to inhibit the human 5-lipoxygenase enzyme.
The procedure for the assay is as follows. Blood is drawn from normal human volunteers into tubes containing heparin. 1 ml of the heparinized blood is pipetted into a 1.5 ml polypropylene tube. To this sample is added either different concentrations of the test compound (5 μl) dissolved in DMSO or 5 μl of DMSO as a vehicle control. These samples are incubated in a water bath, at 37° C. for 15 min. 5 μl of the calcium ionophore A23187 (at a final concentration of 50 μM) is then added to each sample, which is vortexed and placed back in the water bath for 30 min. The samples are then centrifuged at 2500 rpm for 10 min. at 4° C. 50 μl of the supernatant is transferred into pre-cooled Eppendorf tubes containing 950 μl of enzyme immunoassay (EIA) buffer. A commercially available EIA kit (Cayman Chemical Co., Ann Arbor, Mich., USA) is used to subsequently measure the LTB4 production in the samples. The LTB4 levels produced in the vehicle control sample is then compared to those in which the test compound has been added. From this a percent inhibition of LTB4 production by each concentration of test compound is calculated and the IC50 for inhibition of LTB4 production for each test compound is determined.

In test [2] the test system is histamine-induced bronchoconstriction. Put plainly: Antihistaminergic activity in vivo (histamine-induced bronchoconstriction). The following applies: guinea pig, oral. As to the method: Male, Hartley guinea pigs are obtained from Charles River Labs at a body weight of 350 -400 grams. Inhibition of histamine activity is measured by the method of Konzett and Rössler (Naonyn-Schmiedebergs Arch. Exp. Path. Pharmakol. 195, 71-74 (1940). Anaethetized guinea pigs are subjected to artificial ventilation. The endotracheal pressure is recorded. Bronchoconstriction is induced by successive intravenous injections of histamine. The test compounds are administered orally in a 1% methocellulose suspension at set timepoints prior to the administration of histamine.
The results (Table 2) show the percent inhibition of histamine-induced bronchoconstriction by selected compounds at multiple time points post oral dosing. 50% inhibition or greater is considered significant.

The test system of the next test is 5-lipoxygenase. Put plainly: 5-Lipoxygenase inhibitory activity in vivo. The following applies: guinea pig, oral, 2 mg/kg. How it is done: Male, Hartley guinea pigs are obtained from Charles River Labs at a body weight of 350-400 grams. Compounds are prepared at a volume of [1-2 mg/ml] in 1% methocellulose for oral dosing. Animals are separated into groups of five (5). Each assay includes a control group dosed with vehicle. Each group of animals is dosed with either vehicle or compound by oral gavage. Animals are allowed to rest for one, three, or six hours after dosing. Control animals are allowed to rest for three hours. At the appropriate times, the animals are anesthetized with Urethane at 1.5 g/kg, ip. Blood is drawn into a heparinized syringe via cardiac puncture. Blood (0.5 ml) is aliquoted into separately-labeled 1.5 ml eppendorf tubes. Each sample is loaded with 5 μl of [15 mM] Arachidonic Acid, and placed in a 37° C. water bath for five minutes. After five minutes, the blood is stimulated with 5 μl of [5 mM] A23187 (Calcium Ionophore) and retained in the water bath for an additional 30 minutes. After the thirty minutes, the blood samples are removed from the water bath and centrifuged at 14,000 rpm for 2 minutes. Plasma is diluted to EIA buffer and an EIA is performed following manufacturer instructions (Cayman Chemical Co., Ann Arbor, Mich., USA). The results (Table 3) show the percent inhibition of 5-lipoxygenase by selected compounds at multiple time points post oral dosing. 50% inhibition or greater is considered significant.

The target of another test is T3, 15-lipoxygenase (Oryctolagus cuniculus, UniProt P12530).
T3 construct: from tissue; host or cells: rabbit peritoneal polymorphonuclear leukocytes
T3 sequence (P12530 1-663): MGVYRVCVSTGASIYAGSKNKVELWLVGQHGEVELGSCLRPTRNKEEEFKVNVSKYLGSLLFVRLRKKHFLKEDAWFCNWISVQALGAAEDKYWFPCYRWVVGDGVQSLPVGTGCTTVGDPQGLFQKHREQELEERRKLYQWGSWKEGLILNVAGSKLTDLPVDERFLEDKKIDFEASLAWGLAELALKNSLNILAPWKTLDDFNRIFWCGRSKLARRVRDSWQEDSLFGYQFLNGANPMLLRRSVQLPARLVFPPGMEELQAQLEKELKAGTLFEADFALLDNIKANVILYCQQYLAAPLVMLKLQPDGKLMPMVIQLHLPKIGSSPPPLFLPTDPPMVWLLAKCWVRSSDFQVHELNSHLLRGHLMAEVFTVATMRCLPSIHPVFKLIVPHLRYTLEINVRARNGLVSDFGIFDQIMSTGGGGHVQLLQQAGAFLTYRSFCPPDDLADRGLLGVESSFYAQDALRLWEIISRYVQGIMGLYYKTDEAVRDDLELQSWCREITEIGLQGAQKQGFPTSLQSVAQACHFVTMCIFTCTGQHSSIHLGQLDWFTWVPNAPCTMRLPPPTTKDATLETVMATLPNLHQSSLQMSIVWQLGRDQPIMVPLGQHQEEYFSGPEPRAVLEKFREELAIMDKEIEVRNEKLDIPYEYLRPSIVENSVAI
As to the kind of experiment: Inhibition of 15-lipoxygenase (15-HETE production). The following applies: 15-lipoxygenase from rabbit peritoneal polymorphonuclear leukocytes, 5 min at 37° C. The class given is biochemical. An excerpt:
This assay examines the ability of a compound to inhibit production of 15-hydroxy-5, 8, 11, 13-eicosatetraenoic acid (15-HETE) via the action of 15-lipoxygenase on arachidonic acid. 15-lipoxygenase was purified from rabbit peritoneal polymorphonuclear leukocytes. The enzyme is responsible for the conversion of arachidonic acid (via oxygenation at carbon 15 of arachidonic acid) to 15-hydroperoxy-5, 8, 11, 13-eicosatetraenoic acid (15-HPETE), which then reduced to 15-hydroxy-5, 8, 11, 13-eicosatetraenoic acid (15-HETE).
The procedure for the assay is as follows. Arachidonic acid is co-incubated with […] for 5 min at 37° C. in the presence or absence of different concentrations of test compound (10^−8 to 10^−5 M). Production of 15-HETE in each sample is then measured by radioimmunoassay. The 15-HETE levels produced in the vehicle control sample are then compared to those in which the test compound has been added.

The mark [3] stands for this setting: human whole blood, calcium ionophore A23187 50 μM, LTB4 by EIA, read-out: HWB IC50.
Where [4] appears, read: Cavia porcellus, 2 mg/kg, 3 hrs.
Setting [5] is: Cavia porcellus, 2 mg/kg, 6 hrs.

T1 sequence (P35367 whole entry): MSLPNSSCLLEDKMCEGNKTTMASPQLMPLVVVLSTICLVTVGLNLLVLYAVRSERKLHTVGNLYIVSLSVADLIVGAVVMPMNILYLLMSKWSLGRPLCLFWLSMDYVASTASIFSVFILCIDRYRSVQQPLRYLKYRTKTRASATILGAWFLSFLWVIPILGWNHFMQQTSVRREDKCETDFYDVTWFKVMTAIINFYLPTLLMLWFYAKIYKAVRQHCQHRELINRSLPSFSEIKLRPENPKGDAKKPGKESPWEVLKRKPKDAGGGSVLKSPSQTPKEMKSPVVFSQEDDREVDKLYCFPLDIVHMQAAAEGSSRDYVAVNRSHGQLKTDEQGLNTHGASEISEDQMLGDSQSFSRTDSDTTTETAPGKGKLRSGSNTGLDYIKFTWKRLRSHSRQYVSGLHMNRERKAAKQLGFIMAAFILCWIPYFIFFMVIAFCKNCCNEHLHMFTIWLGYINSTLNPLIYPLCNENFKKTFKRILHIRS
Procedure for human cloned H1 receptor: CHO-K1 cells expressing the human cloned H1 receptor are grown to confluence in tissue culture dishes. Cells are harvested using D-PBS buffer (JRH Biosciences), kept at 4° C., centrifuging to pellet cells (4° C., 500 g, 10 min). The final cell pellet is homogenized and resuspended using Tris/sucrose buffer (20 mM Tris, 250 mM sucrose, pH 7.4 at 4° C.). Aliquots of the membrane preparation are stored at −70° C.
On the day of assay, the membrane preparation is thawed and centrifuged (TLA100.3 rotor, 4° C., 15 min, 23,000 rpm). The pellet is resuspended in Tris/sucrose buffer initially and then diluted further as necessary using assay buffer A (50 mM Na/KPO4, 2 mM MgCl2, 0.5% (w/v) BSA, pH 7.5).
For the binding assay, the membrane preparation, test compound and ^3H-pyrilamine (2 nM final) in buffer A with 1% (v/v) DMSO final are incubated in a 96-well polypropylene plate for 3 hours at 37° C. Non-specific binding is determined in the presence of 10 μM pyrilamine. A 96-well harvester (Packard) is used to harvest the 96-well plate onto a GF/B filter plate pre-treated with 0.1% (v/v) PEI. The plate is counted in a Packard Topcounter after adding Microscint 20 (Packard) scintillation fluid. The Ki for each compound at the histamine H1 receptor is then calculated from these counts.

For `NC(=O)N(O)CCCCc1ccc(OCCN2CCN([C@H](c3ccccc3)c3ccc(Cl)cc3)CC2)cc1` [Compound 17, N-{4-[4-(2-{4-[(1R) (4-chlorophenyl)phenyl-methyl]piperazinyl}ethoxy)phenyl]butyl} amino-N-hydroxyamide], the Ki on human cloned H1 receptor turned out to be 15 nM. For the same compound, in test [1] (setting [3]), the IC50 (commonly the midpoint of a concentration-inhibition curve) is 254 nM. Moreover, the figures for the inhibition in vivo at 2 mg/kg in test [2] (setting [4]) and in test [2] (setting [5]) were 66% and 73%, respectively. Also, the “% inhibition of 5-lipoxygenase” value is given as 70% with 5-lipoxygenase (3 hours) and 94% with 5-lipoxygenase (6 hours).
In the case of `NC(=O)N(O)CCC#Cc1ccc(OCCN2CCC(=C3c4ccc(Cl)cc4CCc4cccnc43)CC2)cc1` [Compound 32], the figures for the IC50 (in test [1] (setting [3]); against 15-lipoxygenase) were 263 nM and 170 nM, respectively. Further, the inhibition in vivo (commonly the relative decrease from the control value, in per cent) at 2 mg/kg in test [2] (setting [4]) was determined as 65%. Besides, the “% inhibition of 5-lipoxygenase” value with 5-lipoxygenase (1 hour) is reported as 88%.
As for `NC(=O)N(O)CCC#Cc1ccc(OCCCN2CCN([C@H](c3ccccc3)c3ccc(Cl)cc3)CC2)cc1` [Compound 52, N-{4-[4-(3-{4-[(1R)(4-chlorophenyl)phenyl-methyl]piperazinyt}propoxy)phenyl]but-3-ynyl}amino-N-hydroxyamide], the half-maximal inhibitory concentration (IC50) worked out at 105 nM in test [1] (setting [3]) and 61 nM on 15-lipoxygenase. In test [2] (setting [4]), this compound displayed an inhibition in vivo at 2 mg/kg of 69%. Also, the “% inhibition of 5-lipoxygenase” value in the test on 5-lipoxygenase (3 hours) is 61%.
Turning to `NC(=O)N(O)Cc1ccc(OCCN2CCN([C@H](c3ccccc3)c3ccc(Cl)cc3)CC2)cc1` [Compound 1, N-{[4-(2-{4-[(1R) (4-chlorophenyl)phenylmethyl]piperazinyl}ethoxy)phenyl]methyl} amino-N-hydroxyamide], on human cloned H1 receptor, the Ki amounted to 24 nM. In addition, the IC50 in test [1] (setting [3]) is 1520 nM; at 15-lipoxygenase it was 1300 nM. This compound gave an inhibition in vivo at 5 mg/kg in test [2] (Cavia porcellus, 5 mg/kg, 3 hrs) of 56%. For the same compound, the “% inhibition of 5-lipoxygenase” value in the test with 5-lipoxygenase (1 hour) stood at 62%.
For `NC(=O)N(O)CCC#Cc1cccc(OCCN2CCN([C@H](c3ccccc3)c3ccc(Cl)cc3)CC2)c1` [Compound 23, N-{4-[3-(2-{4-[(1R)(4-chlorophenyl)phenylmethyl]piperazinyl}ethoxy)phenyl]but-3-ynyl}amino-N-hydroxyamide], the Ki at human cloned H1 receptor was found to be 10 nM. In test [1] (setting [3]), the concentration for half-maximal inhibition (IC50) came out at 287 nM. Moreover, the inhibition in vivo at 2 mg/kg in test [2] (setting [4]) turned out to be 80%; in test [2] (setting [5]), 92%. Further, in the test on 5-lipoxygenase (1 hour), the “% inhibition of 5-lipoxygenase” value is given as 80%.
As to `NC(=O)N(O)CCC#Cc1ccc(OCCCCN2CCN(C(c3ccc(F)cc3)c3ccc(F)cc3)CC2)cc1` [Compound 80, amino-N-{4-[4-(4-{4-[bis(4-fluorophenyl)methyl]piperazinyl}butoxy)phenyl]but-3-ynyl}-N-hydroxyamide], the IC50 stood at 78 nM in test [1] (setting [3]) and 110 nM against 15-lipoxygenase. This compound also gave an inhibition in vivo at 2 mg/kg in test [2] (setting [4]) of 98%. Also, the “% inhibition of 5-lipoxygenase” value with 5-lipoxygenase (3 hours) was found to be 73%; in the test with 5-lipoxygenase (6 hours), 88%.
Regarding `NC(=O)N(O)CCC#Cc1ccc(OCCN2CCN(C(c3ccc(F)cc3)c3ccc(F)cc3)CC2)cc1[N+](=O)[O-]` [Compound 87, N-{4-[4-(2-{4-[bis(4-fluorophenyl)methyl]-1-piperazinyl}ethoxy)-2-nitrophenyl]-3-butynyl)-N-hydroxyurea], the Ki at human cloned H1 receptor was determined as 58 nM. The IC50 in test [1] (setting [3]) was 251 nM. The results for the inhibition in vivo at 2 mg/kg in test [2] (setting [4]) and in test [2] (setting [5]) were 66% and 73%, respectively. Besides, the entries for the “% inhibition of 5-lipoxygenase” value with 5-lipoxygenase (1 hour) and with 5-lipoxygenase (6 hours) were 70% and 94%, respectively.
For the compound `NC(=O)N(O)CCC#Cc1ccc(CN2CCN([C@H](c3ccccc3)c3ccc(Cl)cc3)CC2)o1` [Compound 27, N-{4-[5-({4-[(1R) (4-chlorophenyl)phenylmethyl]piperazinyl}methyl)(2-furyl)]but-3-ynyl}amino-N-hydroxyamide], on human cloned H1 receptor, the Ki is 150 nM. In addition, the half-inhibitory concentration (IC50) in test [1] (setting [3]) stood at 650 nM. Moreover, the figures for the inhibition in vivo at 2 mg/kg in test [2] (setting [4]) and in test [2] (setting [5]) were 86% and 91%, respectively. Moreover, the “% inhibition of histamine-induced bronchoconstriction” value in test [2] (2 mg/kg, 6 hrs) is listed as 91%. Further, in the test on 5-lipoxygenase (1 hour), the “% inhibition of 5-lipoxygenase” value is 88%.
Turning to `NC(=O)N(O)CCC#Cc1ccc(CN2CCN(C(c3ccc(F)cc3)c3ccc(F)cc3)CC2)o1` [Compound 34, amino-N-{4-[5-({4-[bis (4-fluorophenyl)methyl]piperazinyl}methyl) (2-furyl)]but-3-ynyl}-N-hydroxyamide], at human cloned H1 receptor, the Ki came to 550 nM. The compound further came in with an IC50 in test [1] of 142 nM. The inhibition in vivo at 2 mg/kg was found to be 81% in test [2] (setting [4]) and 89% in test [2] (setting [5]). In addition, in the test with 5-lipoxygenase (3 hours), the “% inhibition of 5-lipoxygenase” value is on record as 38%.
